The subject of assay [1] is DIO male mice. Kind of assay: Body weight of diet-induced obese mice under daily subcutaneous treatment. The class given is in vivo. As to conditions: daily subcutaneous injections, vs vehicle.
Method: (§1) Six- to eight-week-old male C57Bl/6 mice were given ad libitum access to a high-fat, high-sugar diet comprising 58% kcal fat (D12331; Research Diets, New Brunswick, N.J.). The mice had free access to water and were maintained at 23±1° C., constant humidity and on a 12-h light-dark cycle. Mice were maintained under these conditions for a minimum of 20 weeks before study initiation. At study start, mice were randomized into groups matched for body weight and body composition. Compounds were administered subcutaneously 1 h before the onset of the dark phase. Co-administration of compounds was administered by single formulated injections. Assessment of energy intake, energy expenditure and home-cage activity were performed using an indirect calorimetry system (TSE Phenotmaster, TSE Systems, Bad Homburg, Germany).
To assess the effect of icilin alone on the body weight and food intake, DIO male mice were treated 16 days with vehicle (control) or icilin (0.6 mg/kg or 6 mg/kg). […] Compounds were administered by daily subcutaneous injections.
To assess the effect of the combination therapy on the body weight, DIO male mice were treated 4 days with vehicle (control), DMPP alone (10 mg/kg), icilin alone (5 mg/kg) or DMPP (10 mg/ml)+icilin (5 mg/kg). Compounds were administered by daily subcutaneous injections. […]
Assay [2] has as its system DIO male mice. Description: Glucose tolerance (intraperitoneal glucose challenge) in DIO mice. As to conditions: 7-days treatment, daily subcutaneous injections, vs vehicle. The class given is in vivo.
Method: We also investigated the effect of DMPP alone on glucose tolerance and area under the curve (AUC). Glucose tolerance was assessed following 7-days treatment of DIO male mice with vehicle (control) or DMPP (1 mg/kg, 5 mg/kg or 10 mg/ml). Compounds were administered by daily subcutaneous injections.
Glucose tolerance was assessed following 7-days treatment of DIO male mice with vehicle (control) or icilin (6 mg/kg). […] Compounds were administered by daily subcutaneous injections.
Glucose tolerance was assessed following 7-days treatment of DIO male mice with vehicle (control), DMPP alone (10 mg/kg), icilin alone (5 mg/kg) or DMPP (10 mg/ml)+icilin (5 mg/kg). Compounds were administered by daily subcutaneous injections.
Assay [3] relates to DIO male mice. As to conditions: 14 days, DMPP 1 mg/kg, 5 mg/kg or 10 mg/ml, daily subcutaneous injections, vs vehicle.
Method: as §1
To assess the effect of DMPP alone on the body weight and food intake, diet-induced obese (DIO) male mice were treated 14 days with vehicle (control) or DMPP (1 mg/kg, 5 mg/kg or 10 mg/ml). Compounds were administered by daily subcutaneous injections.
For assay [4], the system named is DIO male mice. Kind of assay: Energy expenditure (indirect calorimetry) in DIO mice. It is filed as in vivo. Particulars: 5-days treatment, icilin 6 mg/kg, daily subcutaneous injections, vs vehicle. As for the experimental part:
To assess the effect of icilin alone on the body weight and food intake, DIO male mice were treated 16 days with vehicle (control) or icilin (0.6 mg/kg or 6 mg/kg). The results of these treatments are shown in FIGS. 3(A) and 3(B) (control: white circle; icilin: 0.6 mg/kg (star) or 6 mg/kg (black circle)). The effect on energy expenditure was investigated by a 5-days treatment of DIO male mice with vehicle (control) or icilin (6 mg/kg). Compounds were administered by daily subcutaneous injections. The results of these treatments are shown in FIG. 3(C) (control: white bar; icilin: black bar).

The subject of assay [5] is DIO male mice. Description: Fasting glucose in DIO mice. The class given is in vivo. Particulars: 23-days treatment, icilin 6 mg/kg, daily subcutaneous injections, vs vehicle. As for the experimental part: Glucose tolerance was analyzed in 6 h fasted mice, following an intraperitoneal challenge with 1.5 g glucose per kg body weight. Glucose levels were measured in blood sampled from the tail veins before (0 min) and at 15, 30, 60 and 120 min post injection. To measure glucose-stimulated insulin secretion blood was collected from tail veins into EDTA-coated microvette tubes (Sarstedt) at time points 0, 15 and 60 min post glucose injection. Insulin sensitivity was assessed in 6 h fasted mice following an intraperitoneal injection of 0.7 U of insulin (Actrapid) per kg body weight. Blood glucose levels were measured before (0 min) and at 15, 30, 60 and 120 minutes after the insulin injection. Insulin was measured with commercially available kit (ALPCO Diagnostics, Salem, N.H.) per the manufacturer's instructions.
Glucose tolerance was assessed following 7-days treatment of DIO male mice with vehicle (control) or icilin (6 mg/kg). The results are shown in FIG. 3(D) (control: white; icilin: black). Fasting glucose was assessed following 23-days treatment of DIO male mice with vehicle (control) or icilin (6 mg/kg). Compounds were administered by daily subcutaneous injections. The results are shown in FIG. 3(E) (control: white bar; icilin: black bar).

Each structure is given as a SMILES string.

In the case of `C[N+]1(C)CCN(c2ccccc2)CC1` [DMPP, dimethylphenylpiperazinium], in assay [1] (14 days, DMPP 1 mg/kg, 5 mg/kg or 10 mg/ml), the “effect on body weight” value is on record as “dose-dependent weight lowering effect”. Also, in assay [2] (DMPP 1 mg/kg, 5 mg/kg or 10 mg/ml), the “effect on glucose tolerance and area under the curve (AUC)” value is reported as “dose-dependent improvement in glucose tolerance”. The “effect on food intake” value in assay [3] is “reduction in food intake”.

In the case of `O=C1NC(c2cccc([N+](=O)[O-])c2)=CCN1c1ccccc1O` [icilin, 3-(2-hydroxyphenyl)-6-(3-nitrophenyl)-3,4-dihydropyrimidin-2(1H)-one], the “effect on body weight” value in assay [1] (16 days, icilin 0.6 mg/kg or 6 mg/kg) is reported as “dose-dependent weight loss”. The “effect on glucose tolerance” value in assay [2] (icilin 6 mg/kg) is on record as “does not lead to a short term improvement in glucose tolerance”. The “effect on energy expenditure” value in assay [4] was “increased energy expenditure”. In addition, the “effect on fasting glucose” value in assay [5] is recorded as “improved fasting glucose levels”.

For the origin of these results see patent publication US10568852B2, “Combination compositions and their use in methods for treating obesity and obesity-related disorders” (Helmholtz Zentrum Munchen—Deutsches Forschungszentrum fur …, priority 2015, dated 2020).
